# Test results from patent US11540515B2, “Use of dialkoxybenzenes for control of honey bee mite varroa destructor” (Simon Fraser University, priority 2018, dated 2023).
# Structures can show the parent of a compound that is named as a salt.
# Columns and labels:
# [1] = system: Varroa mites; test: Evaluation of acaricidal effect: emerging bees loaded with Varroa mites in glass petri dish, compound on Parafilm; type: in vivo, Varroa destructor; conditions: for mites falling off bees: up to end of experiment; for acaricidal effect: highest amount tested (30 μl), end of 24 h
# Procedure: The effect of the compounds was checked in free moving-mites freshly collected from the bottom board using fine paint brush. All collected Varroa were kept on emerging bees at room temperature until the experiment.
# Compounds (code-labeled, Table 1) were prepared in hexane:ethyl acetate (1:1) in 10 mM concentration according to instructions. Dilutions only of compound “A” was prepared. […] This setup enabled the testing of all the compounds and to save the mites.
# The assay was conducted in glass petri dish (90 mm diameter and 17 mm deep glass) containing moistened filter paper. Five emerging bees loaded with two Varroa mites were put into each plate. The bees were provided with candy (60% of pollen and 40% sugar). 10 μl or 30 μl volume of each compound or control mix was placed on Parafilm paper (5×5 cm) on the plates cover.
# [2] = system: Varroa mites; test: Example 6 behavioral dose response bio-assays of Varroa mites; type: in vivo; conditions: for mite paralysis/mortality: 1 mg
# Text: Foragers were collected at the entrance of one or more honey bee hives by aspiration into a jar, when bees were flying back to the colony.
# Initially, nurses were collected from an open brood frame of a honey bee hive. Bees apparently attending the brood were targeted for collection. As time passed and temperatures started to drop no open brood was observed, therefore subsequent collections targeted bees around sealed brood. At the end of the sampling period no sealed brood was present, so bees taken from the middle frame of a brood chamber were considered nurses.
# Both foragers and nurses were immediately transferred to individual plastic cages (118×98×81 mm: H×W×D), fed with syrup (2:1) and kept overnight in an incubator at 30° C. and 70% RH. Next day, cages were inspected for any dead bees to be removed before freeze killing the bees on dry ice.
# For Varroa mite collection, adult bees were taken from the brood chamber's central frames of a mite-infested hive using a glass jar. Bees were fed with syrup (2:1), and kept in an incubator at 30° C. and 70% RH until needed. First collections were made from frames with open and sealed brood, later only from sealed brood frames.
# Mite-infested bees in the glass jar were dusted with icy sugar and shaken over a large plastic weighing boat. Dislodged Varroa were immediately transferred with a fine paint brush to a wet filter paper in a plastic petri dish to avoid desiccation. Individual mites were placed then onto the middle of a glass petri dish bottom (10 cm diameter) with a fresh freeze-killed forager or nurse bee on opposite sides of the plate. Synthesized compounds were applied onto a 1 cm^2 Parafilm square attached to the center of the petri dish cover's inner face, Hexane was used as control.
# The bio-assays with a forager and a nurse bee, Varroa mite, and synthesized compounds were set in glass petri dishes placed into an incubator at 30° C. and 70% relative humidity. […] Mite paralysis and death were recorded after 3 h and 5 h.
# [3] = system: Varroa destructor mites; test: Example 3 paralysis assays in petri dishes (dose response, screen, blends); type: in vivo
# Procedure: Paralysis assays. These assays were done in 10 cm glass Petri dishes. A 3×3 cm piece of Parafilm was stuck to the lid of the dish, in the middle. The Parafilm received […], either pure (controls) or with the compound (treatments). The bottom of the dish received one freshly thawed nurse and one freshly thawed forager, placed ˜3 cm from the center of the dish. One mite was placed between the nurse and the forager, the lid was closed and groups of dishes were placed in an incubator at 30° C. Humidity levels were kept at around 35-40%.
# Observation times were 3 h and 5 h. Mites were scored for whether the mite could move normally, was paralyzed (had difficulty moving) or dead (not moving).
# Each assay was done in 5 technical replicates, in two biological replicates. Thus, each biological replicate was scored out of 5.
# (§1) Experiments were performed in the dishes: i) dose response assays with a single compound at different doses of compound on the Parafilm (1 ng, 10 ng, 100 ng, 1 μg, 10 μg, 100 μg, 1 mg and 10 mg), ii) a screen with six compounds, all at a 1 mg dose, iii) an assay with blends of compounds 3c{3,6} and 3c{6,6}, and iv) one assay without bees (only to check for mite paralysis and death), with compounds 3c{3,6} and 3c{6,6}(pure or 1:1 blend), at 0.5 and 1 mg doses.
# [4] = system: Varroa destructor mites; test: Example 3 mite paralysis/death in the absence of bees; type: in vivo; conditions: no bees, 4.5 h
# Procedure: as §1
# Compounds 3c{3,6}, 3c{6,6} were tested on mites in the absence of bees, alone and as a 1:1 blend. Mite paralysis and death were checked every 30 min, up to 4.5 h after initial exposure. Four doses were tested: 0.2, 0.5, 1 and 10 mg.
# [5] = system: Varroa; test: Example 5 Varroa death and paralysis assay, single compounds and blend; set-up: species or system Varroa destructor; conditions: in vivo
# Procedure: Assays were done in 9 cm glass Petri dishes. A 2.5×2.5 cm piece of Parafilm was stuck to the lid of the dish, in the middle. 120 μL water were put on filter paper in the middle of the plate. The Parafilm received 10 μL of hexane, either pure (controls) or with the compound (treatments). The bottom of the dish received one freshly thawed nurse and one freshly thawed forager, placed at opposite sides. One mite was placed between the nurse and the forager, the lid was closed and groups of dishes were placed in an incubator at 30° C. Observation times were at 3 h, 5 h and 20 h. Mites were scored for whether the mite could move normally, was paralyzed (had difficulty moving) or dead (not moving). Four types of experiment were performed in the dishes: i) dose response assays with a single compound at different doses of compound on the Parafilm (1 ng, 10 ng, 100 ng, 1 μg, 10 μg, 100 μg, 1 mg) an assay with blends of compounds 3c{3,6} and 3c{6,6} (pure or 1:1 blend) at 0.5 mg and […].
# [6] = system: honey bee antennae; conditions: earlier evaluation; cited from earlier work
# [7] = system: Varroa; conditions: earlier evaluation; cited from earlier work
smiles,measurement,setting,value
"C=CCOc1ccccc1OCCC [3a{3,6}, 1-allyloxy-2-propoxybenzene]",mites falling off bees,[1],occasionally fell off bees but reattached quickly
"CCOc1cccc(OCC)c1 [3b{2,2}, 1,3-diethoxybenzene]",mite paralysis/mortality,[2],50%
"C=CCOc1ccc(OCC)cc1 [3c{2,6}, 1-(allyloxy)-4-ethoxybenzene]",paralysis and mite death in screen,"[3]; 1 mg dose, 3 h",little paralysis
"CCCOc1ccc(OCCC)cc1 [3c{3,3}, 1,4-dipropoxybenzene]",acaricidal effect,[1],clear acaricidal effect
same,paralysis and mite death in screen,"[3]; 1 mg dose, 3 h",most reliable mite paralysis
"CCCCOc1ccc(OCCC)cc1 [3c{4,3}, 1-butoxy-4-propoxybenzene]",acaricidal effect,[1],somewhat effective
same,paralysis and mite death in screen,"[3]; 1 mg dose, 3 h",most death
"C=CCOc1ccc(OCCCC)cc1 [3c{4,6}, 1-(allyloxy)-4-butoxybenzene]",acaricidal effect,[1],clear acaricidal effect
same,"activity relative to compound 3c{3,6} in screen",[3]; 1 mg dose,slightly less active
"C=CCOc1ccc(OCC=C)cc1 [3c{6,6}, 1,4-bis(allyloxy)benzene]",acaricidal effect,[1],clear acaricidal effect
same,mites falling off bees,[1],occasionally fell off bees but reattached quickly
same,"fold less active than 3c{3,6} with regard to paralysis and death of mites",[3]; from EC50,ca. 4 ×
same,EC50 for paralysis and eventual death of mites,"[3]; neat compound on the source, vapors only, 3 h",182 µg
same,mite paralysis+death,[4]; 0.2 mg,no activity
same,mite paralysis+death,[4]; 0.5 mg,no activity
same,mite paralysis or death,[4]; 10 mg,100%
same,acaricidal activity alone,[5],acaricidal
same,mite paralysis/mortality,[2],50%
same,doses at which mites were paralyzed or killed,[2]; FIG. 9 / FIG. 10,≥ 10 µg
"C=CCOc1ccc(OCCCCC)cc1 [3c{n5,6}, 1-(allyloxy)-4-(pentyloxy)benzene]",mites falling off bees,[1],occasionally fell off bees but reattached quickly
"CCN(CC)C(=O)c1cccc(C)c1 [DEET, N,N-diethyl-meta-toluamide]",chemosensing and behavior of honey bees,[6],not found to affect
same,ability of mites to reach a bee,[7],reduced
same,host preference of Varroa,[7],without affecting
Cc1ccc(C(C)C)c(OC=O)c1 [thymyl formate],acaricidal effect,[1],somewhat effective
